Values joined by “and” are separate entries in the source; they are usually repeats but may differ in a detail not shown here. Equal values may be shown once.
Key:
Assay type in all cases: cell-based
[1] = system: normal human dermal fibroblasts (NHDF); assay: NHDF migration assay, 48-well chemotaxis chamber
Method: Normal, human dermal fibroblasts (NHDF) were obtained from Biowhittaker, (Walkersville, Md.) and propagated in T75 flasks in FBM media (500 mL, Biowhittaker) containing insulin, hFGF-b, GA-1000, and fetal bovine serum (10 mL) for up to 12 passages. For the migration assay, NHDF were washed once with 10 mL of Hank's buffered saline solution (HBSS). Three milliliters of trypsin (0.25%) in EDTA were added to the T75 flask for no more than five minutes to remove NHDF from the flask. NHDF in trypsin solution were added to 7 mL of FBM with no supplements added. NHDF were centrifuged for 5 minutes, and the supernatant was removed. NHDF were resuspended in 10 mL of FBM for counting. NHDF were centrifuged for another 5 minutes, and the supernatant was removed. NHDF were resuspended at 1×10^6 cells per mL in FBM without supplements. It was important to use FBM media only in migration assays because the complete media contains fibroblast growth factor and serum, both of which will trigger migration of fibroblasts.
Peptides were synthesized and purified by the Microchemical Facility at Emory University or by SigmaGenesis. All peptides were analyzed by mass spectrometry after HPLC to assess purity. Approximately 0.5–2.0 milligrams of peptide were used to make fresh stock solutions (5 mg/mL in PBS) for each migration assay. The peptide stock solutions in PBS were used to make more dilute solutions (1 mg/mL, 100 μg/mL, 10 μg/mL, 1 μg/mL, 100 ng/mL, 10 ng/mL) in FBM (without supplements) for the migration assays.
Polyvinylpyrrolidone-free polycarbonate membranes with […] pores (Neuroprobe, Inc., Gaithersburg, Md.) were washed with 90% ethanol for 15 minutes and rinsed four times with deionized water. Membranes were then placed into a glass dish containing an aqueous solution of 5 μg/mL gelatin. The glass dish was placed in to a water bath at about 90° C. for one hour. Membranes were removed from the gelatin solution and were allowed to dry for one hour in the 37° C. incubator.
A 48-well chemotaxis chamber (Neuroprobe, Inc., Gaithersburg, Md.) (see FIG. 20) was used for the migration assays. Twenty-eight μL of each test solution were added to the bottom wells of the chamber in quadruplicate. A gelatin-treated membrane was placed carefully on top of the bottom wells. The gasket and top part of chamber were then placed carefully on top of the membrane. The apparatus was tightened using six thumbscrews. A solution of NHDF containing an estimated cell density (2×10^5 cells per mL) was made by adding 320 μL of the 1×10^6 cells per mL solution to 1.28 mL of FBM (no supplements). Fifty microliters of the 2×10^5 cells per mL NHDF solution were added to the top part of each well in the chamber. The chamber was placed in the incubator at 37° C./5% CO2 for three hours. The chamber was removed, the thumbscrews were removed, and the chamber was turned upside down on a paper towel. […] The membrane was carefully removed. […] The membrane was fixed with methanol and stained using the Diff-Quik Staining Solutions I and II. The nuclei of NHDF are stained purple. The membrane was mounted on a glass slide using cedarwood immersion oil and a cover slip. […] The average number of migrated NHDF in the negative control was subtracted from the experimental (peptide) data and positive control data.

EpiDerm skin model = assay: viability assay (MTT) in EpiDerm skin model; conditions: peptide at 500 μM and 2 mM, relative to PBS control
Method: The sample containers were transferred to 6 well plates that contained fresh media. All peptides were dissolved in PBS at a final concentration of 10 mM, and 100 μL each peptide solution was pipetted onto the surface of the Epiderm sample container. Incubation was continued for 12 hours at 37° C., 5% CO2. After the incubation period, the sample containers were washed three times with PBS and the sample containers were transferred to a 24 well plate that contained 300 μL of MTT assay media per well (MTT concentration was 1 mg/mL). The colorimetric assay was allowed to develop for three hours (incubation at 37° C., 5% CO2). Sample containers were then transferred to a 24 well culture plate that contained 2 mL of isopropanol per well. Extraction of the colored precipitate occurred over a period of four hours at room temperature. Absorbance readings were taken at 570 nm and 650 nm for each sample. The percent viability of each sample relative to a PBS control was calculated as: 100×(OD570^sam−OD650^sam)/(OD570^con−OD650^con) (6) Routinely, the peptide sample was assayed in triplicate. Results

[2] = system: normal human dermal fibroblasts; assay: fibroblast proliferation, Cell Titer 96, OD 490 nm; design: fibroblast cell density versus control: dose or concentration left out as unconfirmed; conditions: 28 hours
Method: A human skin fibroblast cell line (Clonetics, Walkersville, Md., normal human dermal fibroblasts, neonatal, catalog number CC-2509) was tested to ascertain whether exposure to a peptide would stimulate cellular proliferation. […] Plates were incubated for 24 hours at 37° C. in a humidified 5% CO2 atmosphere. After incubation, the medium was aspirated and the wells were rinsed twice with 100 μl of serum-free DMEM. […] In addition, 100 μl of vehicle (serum-free DMEM) was added to 10 wells as control. All wells were incubated for 28 hours at 37° C. in a humidified, 5% CO2 atmosphere. After incubation, 20 μl of Cell Titer 96 Aqueous One Solution was added to all wells. The plates were swirled gently and placed back in the incubator for 45 minutes and spectrophotometric absorbance was read at 490 nm. Results were analyzed statistically using one-way ANOVA.

Q: For CC(C)[C@H](NC(=O)[C@H](CC(=O)O)NC(=O)[C@@H]1CCCN1C(=O)[C@H](CC(N)=O)NC(=O)CNC(=O)[C@H](CS)NC(=O)[C@H](CCCNC(=N)N)NC(=O)[C@@H]1CCCN1)C(=O)N[C@@H](C)C(=O)N[C@@H](CC(N)=O)C(=O)N[C@@H](Cc1ccc(O)cc1)C(=O)N[C@@H](CC(N)=O)C(=O)N[C@@H](Cc1ccccc1)C(=O)N[C@@H](Cc1ccccc1)C(=O)N1CCC[C@H]1C(=O)N[C@@H](CCCNC(=N)N)C(=O)N[C@@H](CCCCN)C(=O)N1CCC[C@H]1C(=O)N[C@@H](CCCCN)C(=O)O [Peptide 19-mer], which “NHDF migration, percent of the plasma fibronectin positive control” value (from here on “NHDF migration, percent”) ([1]; 100 μg/mL peptide) is on record?
A: 46±3% and 46%±3%

Q: What about the “NHDF migration, percent” value ([1]; 1000 μg/mL peptide) of the same molecule?
A: 55±3% and 55%±3%

Q: What about the “NHDF migration, percent” value ([1]; concentrations below 100 μg/mL) of the same molecule?
A: about 20%

Q: And the total average viability (EpiDerm skin model)?
A: 97.6%

Q: And the “fibroblast cell growth versus control” value ([2]; 1×10^−4 M, P<0.001)?
A: even greater cell growth

Q: And the “fibroblast cell proliferation versus control” value ([2]; 1×10^−6 M, P<0.05)?
A: a small amount of cell proliferation

Q: And the “fibroblast cell density versus control” value ([2]; (19mer5), P<0.01)?
A: significantly greater cell density
